Tests used:
[1] = system: ES cells or the iPS cells; assay: qPCR of marker gene expression in cells differentiated with added inhibitors; assay type: cell-based, human; settings: 10 nM C59, spheres, qPCR
Description: (§1) Human ES cells (KhES-1) were obtained from Institute for Frontier Medical Sciences, Kyoto University (Suemori H, et al. Biochem Biophys Res Commun. 345: 926-32, 2006). The human iPS cells 404C2 are cells obtained by introducing Oct3/4, Sox2, Klf4, L-MYC, LIN28 and p53shRNA into human fibroblasts, using an episomal vector, and these cells were obtained from Professor Yamanaka et al. in Kyoto University (Okita, et al, Nat Methods. 8: 409-412, 2011). The human iPS cells 836B1 are cells obtained by introducing Oct3/4, Sox2, Klf4, L-MYC, LIN28, GLIS1 and p53shRNA into human fibroblasts, using an episomal vector, and these cells were obtained from Professor Yamanaka et al. in Kyoto University. The ES cells and the iPS cells were cultured on SNL cells (Takahashi K, et al, Cell. 131: 861-872, 2007).
On the day before induction of differentiation, in order to separate the ES cells or the iPS cells, which had been cultured in a culture medium to which 10 μM Y-27632 (WAKO) had been added, from the SNL feeder cells, the SNL cells were removed with CTK and the remaining cells were then dissociated using Accumax (ICT). The cells were transferred on a 96-well plate (Lipidure-coat 96-well plate (NOF Corporation)) in an amount of 9×10^3 cells per well. Thereafter, the cells were subjected to a suspension culture in DMEM/F12 (WAKO) comprising 50 μM Y-27632 (WAKO), 10 μM SB43152 (Sigma), 10 ng/ml bFGF (Invitrogen), various types of Wnt inhibitors (DKK1 (R & D, 500 ng/ml), C59 (Cellagen Technology, 2-10 nM), XAV (Stemgent, 500 nM-2 μM) or IWP4 (Stemgent, 500 nM-2.5 μM)), LDN193189 (Stemgent), KSR (Invitrogen), 0.1 mM MEM non-essential amino acid (Invitrogen), 0.1 mM 2-mercaptoethanol (WAKO), and 2 mM L-Gln (Invitrogen) (initiation of differentiation induction, day 0). […] Three days later, the medium was exchanged with DMEM/F12 (WAKO) comprising various types of Wnt inhibitors (DKK1, C59, XAV or IWP4 (Stemgent)), LDN193189 (Stemgent), KSR (Invitrogen), 0.1 mM MEM non-essential amino acid (Invitrogen), 0.1 mM 2-mercaptoethanol (WAKO), and 2 mM L-Gln (Invitrogen) (day 6). Thereafter, the medium was exchanged with a fresh one of the same type every 3 days, and the culture was carried out for 18 days after the initiation of differentiation induction (day 18).
The obtained cell mass was transferred on a dish (24-well plate (BD)) coated with 50 μg/ml ornithine (Sigma), 5 μg/ml laminin (Sigma) and 5 μg/ml fibronectin (BD Bioscience Pharmingen), and the culture was continued in Neurobasal (Invitrogen), to which B27 (Invitrogen), 2 mM L-Gln, and 10 units/ml penicillin and streptomycin (Invitrogen) had been added. The culture was carried out for, at maximum, 46 days after the initiation of differentiation induction. It is to be noted that the medium was exchanged with a fresh one every 2 or 3 days.
In the above-described induction method, 500 ng/ml DKK1, 2 nM C59, 500 nM XAV or 500 nM IWP4 was added as a Wnt inhibitor to the cells, and the obtained mixture was then cultured for 18 days. Thereafter, the expression levels of Six3 (forebrain marker), Sox1 (neuroectodermal marker), Foxg1 (cerebral cortex-forming factor), Lhx2 (cerebral cortex-forming factor), Emx2 (forebrain back portion marker), CoupTF1 (forebrain back portion marker) and Pax6 (forebrain front portion marker) genes in the cultured cells were measured by a qPCR method (FIG. 2).
The concentration of C59 used as a Wnt inhibitor in the above-described induction method was examined. Specifically, without using C59, or using 2.5 nM, 10 nM and 1 μM C59, the cells were cultured for 18 days. […] The obtained spheres were subjected to immunostaining of using an antibody against Pax6. […] Furthermore, the expression levels of the Foxg1, Lhx2, Emx2 and CoupTF1 genes in the obtained spheres were measured according to a qPCR method (FIG. 4B). As a result, the expression level of CoupTF1 was low and the expression levels of Lhx2 and Foxg1 were high in the case of using 10 nM C59. […]

[2] = system: ES cells or the iPS cells; assay: Immunostaining for CoupTF1 and Ctip2 after 46 days of cerebral cortex differentiation; assay type: cell-based, human; settings: 2 nM C59 as Wnt inhibitor, 46 days; compared with 500 ng/ml DKK1, 500 nM XAV
Description: as §1
On the day before induction of differentiation, in order to separate the ES cells or the iPS cells, which had been cultured in a culture medium to which 10 μM Y-27632 (WAKO) had been added, from the SNL feeder cells, the SNL cells were removed with CTK and the remaining cells were then dissociated using Accumax (ICT). The cells were transferred on a 96-well plate (Lipidure-coat 96-well plate (NOF Corporation)) in an amount of 9×10^3 cells per well. Thereafter, the cells were subjected to a suspension culture in DMEM/F12 (WAKO) comprising 50 μM Y-27632 (WAKO), 10 μM SB43152 (Sigma), 10 ng/ml bFGF (Invitrogen), various types of Wnt inhibitors (DKK1 (R & D, 500 ng/ml), C59 (Cellagen Technology, 2-10 nM), XAV (Stemgent, 500 nM-2 μM) or IWP4 (Stemgent, 500 nM-2.5 μM)), LDN193189 (Stemgent), KSR (Invitrogen), 0.1 mM MEM non-essential amino acid (Invitrogen), 0.1 mM 2-mercaptoethanol (WAKO), and 2 mM L-Gln (Invitrogen) (initiation of differentiation induction, day 0). […]
The concentration of LDN193189 used in the above-described induction method was examined. […] Furthermore, the expression levels of the CoupTF1 and Sfrp1 genes were measured according to a qPCR method (FIG. 5C). […]

Cc1cc(-c2ccc(CC(=O)Nc3ccc(-c4cccnc4)cc3)cc2)ccn1 [C59]
expression level of CoupTF1 [1]: low
expression level of Foxg1 [1]: high
expression level of Lhx2 [1]: high
CoupTF1-negative Ctip2-positive cerebral cortex neurons induced [2]: a large number

— patent US10626368B2, “Method for inducing cerebral cortex neurons” (KYOTO UNIVERSITY, priority 2015, dated 2020)
